In paper PMC10987128, “A Natural Small Molecule Mitigates Kidney Fibrosis by Targeting Cdc42‐mediated GSK‐3β/β‐catenin Signaling” (Advanced Science, 2024):

Columns and labels:
[1] = target: T1, Cdc42 (cell division cycle 42) (Homo sapiens, UniProt P60953); assay: SPR (Biacore 8K, Cdc42 immobilized on CM5 chip), positive control; assay type: binding
T1 construct: recombinant Cdc42 protein (230-00660-100, RayBio)
Excerpt: SPR (Biacore 8K, Cdc42 immobilized on CM5 chip), positive control on Cdc42 (cell division cycle 42) | We used ZCL278, a well‐known Cdc42 binding compound, as a positive control in SPR experiments

[2] = target: T1, Cdc42 (cell division cycle 42); assay: SPR (Biacore 8K, Cdc42 immobilized on CM5 chip); supported by CETSA and TPP in NRK-49F cells; assay type: binding

T1 sequence (P60953 1-188): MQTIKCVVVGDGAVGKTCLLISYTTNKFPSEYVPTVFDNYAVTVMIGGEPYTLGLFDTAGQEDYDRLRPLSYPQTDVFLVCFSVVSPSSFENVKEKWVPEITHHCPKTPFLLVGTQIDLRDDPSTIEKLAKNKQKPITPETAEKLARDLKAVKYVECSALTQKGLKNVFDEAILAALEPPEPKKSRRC

Kd [1] [µM] | Compound | Kd [2] [µM]
18.6 | Cc1cc(C)nc(NS(=O)(=O)c2ccc(NC(=S)NC(=O)COc3ccc(Br)cc3Cl)cc2)n1 [ZCL278] | –
– | C=C(C)[C@]12C[C@@H](C)[C@]34OC5(CCCCCCC[C@H](C)[C@@H]6[C@@H]3[C@@](O)(C(=O)[C@@]6(C)O)[C@H](O)[C@@]3(CO)O[C@H]3[C@H]4[C@H]1O5)O2 [compound 15, daphnepedunin A] | 15.6
